# System: MSSA and MRSA strains
# Assay: MIC potentiation, groups of strains
# Type: cell-based, Staphylococcus aureus
# Conditions: all 40 tested strains
# Method: Potentiation of Activities of/36-Lactam Antibiotics. Compound 4 was evaluated as an adjuvant for β-lactam antibiotics, per design principles.
# MICs were determined by the microdilution broth method following the Clinical & Laboratory Standards Institute (CLSI) guidelines. […] Experiments were performed in triplicate in 96-well plates with 5×10^5 CFU·mL^−1 of bacteria. […] The MIC was the concentration for which bacterial growth was not observed.
compound,measurement,value
"N#Cc1ccc2nc(SCB(O)O)n(Cc3ccc(C(F)(F)F)cc3C(F)(F)F)c2c1 [Compound 4, (((1-(2,4-bis(trifluoro-methyl)benzyl)-6-cyano-1H-benzo[d]imidazol-2-yl)thio)methyl)boronic acid]",potentiation of the activity of MEM by 4,lowering MICs to below resistant level

# From patent US20260284011A1, “COMPOUNDS FOR RESTORING SUSCEPTIBILITY TO BETA-LACTAM ANTIBIOTICS” (UNIVERSITY OF NOTRE DAME DU LAC, priority 2023, published 2026)
